According to patent publication US9499538B2, “Estrogen receptor modulators and uses thereof” (Seragon Pharmaceuticals, Inc., priority 2012, dated 2016):
pIC50: −log10 of the molar value.

Columns and labels:
ER-α in MCF-7 cells = molecular target: T1, ER-α in MCF-7 cells (Homo sapiens, UniProt P03372); assay: Breast Cancer Cell ER-α In Cell Western Assay (SP1); type: cell-based; conditions: 4 or 24 hr post compound addition; for Emax: MCF7, SP1 antibody, read-out: ER-α In Cell Western Assay (SP1) Max Response; for DC50: SP1 antibody, read-out: ER-α In Cell Western Assay (SP1) IC50
T1 construct: endogenous in cells; host or cells: MCF-7
T1 sequence (P03372 1-595): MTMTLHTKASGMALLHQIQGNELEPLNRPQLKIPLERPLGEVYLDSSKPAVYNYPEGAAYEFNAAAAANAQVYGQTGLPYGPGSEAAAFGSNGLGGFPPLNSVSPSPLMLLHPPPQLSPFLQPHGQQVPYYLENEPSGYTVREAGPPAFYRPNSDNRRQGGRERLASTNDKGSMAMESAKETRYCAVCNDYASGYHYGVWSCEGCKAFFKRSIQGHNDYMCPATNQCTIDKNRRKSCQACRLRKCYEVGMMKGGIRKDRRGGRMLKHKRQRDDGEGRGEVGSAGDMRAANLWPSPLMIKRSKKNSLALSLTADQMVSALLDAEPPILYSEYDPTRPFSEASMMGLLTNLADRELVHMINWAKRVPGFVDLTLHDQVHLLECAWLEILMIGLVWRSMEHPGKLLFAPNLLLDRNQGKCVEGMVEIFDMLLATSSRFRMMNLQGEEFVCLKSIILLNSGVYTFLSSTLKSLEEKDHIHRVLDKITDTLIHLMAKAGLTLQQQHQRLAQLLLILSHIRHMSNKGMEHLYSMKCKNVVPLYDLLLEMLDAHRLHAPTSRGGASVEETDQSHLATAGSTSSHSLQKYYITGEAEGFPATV
Protocol: MCF-7 cells were adjusted to a concentration of 200,000 cells per mL in RPMI containing 10% charcoal-stripped FBS and 20 mM HEPES. 16 microliters of the cell suspension (3200 cells) was added to each well of a poly-D-lysine 384 well plate, and the cells were incubated overnight to allow the cells to adhere. The following day an eleven point, serial semilog dilution of each compound was added to the cells in 16 μL at a final concentration ranging from 0.3-0.000003 μM. At 4 or 24 hr post compound addition, the cells were fixed (10% formalin in PBS) for 20 minutes. Cells were permeablized in PBS 0.1% Triton and blocked with LICOR blocking buffer (50 μl/well, 90′). The wells were then incubated overnight at 4° C. with SP1 rabbit monoclonal Ab (Thermo Scientific) diluted 1:1000 in LICOR blocking buffer/0.1% Tween-20. Wells which were treated with blocking buffer with Tween but no antibody were used as a background control. Wells were washed with 0.1% Tween-20/PBS and then incubated in goat anti-rabbit IRDye™ 800CW (LICOR Inc.; 1:10000) and DRAQ5 DNA dye (1:2000 for 2 mM stock) diluted in LICOR blocking buffer containing 0.1% Tween-20 and 0.01% SDS for 60 minutes. Cells were washed (50 μl/well, 5′ each) in 0.1% Tween-20/PBS. Plates were scanned on a LICOR Odyssey infrared imaging system. Integrated intensities in the 800 nm channel and 700 nm channel were measured to determine levels of ER and DNA respectively. Percent ER levels were determined as follows: (Integrated intensity 800 nm sample/integrated intensity 700 nm sample)/(Integrated intensity 800 nm untreated cells/integrated intensity 700 nm untreated cells)×100=% ER levels. […]

MCF-7 cells = assay: Breast Cancer Cell Viability Assays (MCF-7, CellTiter-Glo); type: cell-based; conditions: 5 days' compound exposure; for pIC50: Homo sapiens, MCF7, 120 h
Protocol: MCF-7 cells were adjusted to a concentration of 20,000 cells per mL in RPMI containing 10% FBS and 20 mM HEPES. 16 microliters of the cell suspension (320 cells) was added to each well of a 384 well plate, and the cells were incubated overnight to allow the cells to adhere. The following day an eleven point, serial semilog dilution of each compound was added to the cells in 16 μL at a final concentration ranging from 0.3-0.000003 μM. After 5 days' compound exposure, 16 μL of CellTiter-GLo (Promega, Madison Wis.) was added to the cells, and the relative luminescence units (RLUs) of each well were determined. CellTiter-Glo added to 32 μL of medium without cells was used to obtain a background value. The Percent viability of each sample was determined as follows: (RLU sample−RLU background/RLU untreated cells−RLU background)×100=% viability. […]

SMILES | Emax (ER-α in MCF-7 cells) [%] | DC50 (ER-α in MCF-7 cells) [nM] | pIC50 (MCF-7 cells) | MCF7 Viability Assay Max Response (MCF-7 cells)
O=C(O)/C=C/c1ccc(/C(=C(\c2ccc(F)cc2C(F)(F)F)C2CCC2)c2ccc3[nH]nc(F)c3c2)cn1 [Example 269, (E)-3-(5-((Z)-2-Cyclobutyl-1-(3-fluoro-1H-indazol-5-yl)-2-(4-fluoro-2-(trifluoromethyl)phenyl)vinyl)pyridin-2-yl)acrylic acid] | ≥ 40 | ≤ 100 | ≥ 7.00 | ++ (++ = a single % value ≧ 40%)
Fc1n[nH]c2ccc(/C(=C(/c3ccncc3Cl)C3CCC3)c3ccc(/C=C/c4nnn[nH]4)cc3)cc12 [Example 172, 5-((E)-1-(4-((E)-2-(2H-Tetrazol-5-yl)vinyl)phenyl)-2-(3-chloropyridin-4-yl)-2-cyclobutylvinyl)-3-fluoro-1H-indazole] | ≥ 40 | ≤ 100 | ≥ 7.00 | ++ (++ = a single % value ≧ 40%)
Fc1n[nH]c2ccc(/C(=C(/c3ccccc3)C3CCC3)c3ccc(/C=C/c4cccnc4)cc3)cc12 [Example 205, 5-((E)-2-Cyclobutyl-2-phenyl-1-(4-((E)-2-(pyridin-3-yl)vinyl)phenyl)vinyl)-3-fluoro-1H-indazole] | ≥ 40 | ≤ 100 | < 7.00 | + (+ = a single % value < 40%)
CS(=O)(=O)c1ccc(/C(=C(\c2ccc(/C=C/C(=O)O)cc2)c2ccc3[nH]nc(F)c3c2)C2CCC2)c(Cl)c1 [Example 196, (E)-3-(4-((E)-2-(2-Chloro-4-(methylsulfonyl)phenyl)-2-cyclobutyl-1-(3-fluoro-1H-indazol-5-yl)vinyl)phenyl)acrylic acid] | ≥ 40 | ≤ 100 | ≥ 7.00 | ++ (++ = a single % value ≧ 40%)
O=C(O)/C=C/c1ccc(/C(=C(\c2ccccn2)C2CCC2)c2ccc3[nH]nc(F)c3c2)cc1 [Example 141, (E)-3-(4-((E)-2-Cyclobutyl-1-(3-fluoro-1H-indazol-5-yl)-2-(pyridin-2-yl)vinyl)phenyl)acrylic acid] | ≥ 40 | ≤ 100 | ≥ 7.00 | ++ (++ = a single % value ≧ 40%)
CC(C)/C(=C(/c1ccc(/C=C/C(=O)O)cc1)c1ccc2[nH]nc(F)c2c1)c1ccccc1 [Example 15, (E)-3-(4-((E)-1-(3-Fluoro-1H-indazol-5-yl)-3-methyl-2-phenylbut-1-en-1-yl)phenyl)acrylic acid] | ≥ 40 | ≤ 100 | ≥ 7.00 | ++ (++ = a single % value ≧ 40%)
N#Cc1cc(F)ccc1/C(=C(\c1ccc(/C=C/C(=O)O)cc1)c1ccc2[nH]nc(F)c2c1)C1CC1 [Example 155, (E)-3-(4-((E)-2-(2-Cyano-4-fluorophenyl)-2-cyclopropyl-1-(3-fluoro-1H-indazol-5-yl)vinyl)phenyl)acrylic acid] | ≥ 40 | ≤ 100 | ≥ 7.00 | ++ (++ = a single % value ≧ 40%)
CC/C(=C(/c1ccc(/C=C/C(=O)O)cc1)c1ccc2[nH]nc(F)c2c1)c1ccc(C(F)(F)F)cc1C#N [Example 103] | ≥ 40 | ≤ 100 | ≥ 7.00 | ++ (++ = a single % value ≧ 40%)

Second part, led by results:

Emax (ER-α in MCF-7 cells) [%] | DC50 (ER-α in MCF-7 cells) [nM] | pIC50 (MCF-7 cells) | SMILES | MCF7 Viability Assay Max Response (MCF-7 cells)
≥ 40 | ≤ 100 | ≥ 7.00 | O=C(O)/C=C/c1ccc(/C(=C(\c2cncc(Cl)c2)C2CCC2)c2ccc3[nH]nc(F)c3c2)cc1 [Example 130, (E)-3-(4-((E)-2-(5-Chloropyridin-3-yl)-2-cyclobutyl-1-(3-fluoro-1H-indazol-5-yl)vinyl)phenyl)acrylic acid] | ++ (++ = a single % value ≧ 40%)
≥ 40 | ≤ 100 | ≥ 7.00 | O=C(O)/C=C/c1ccc(/C(=C(\c2ccncc2Cl)C2CCC2)c2cc3ccccc3o2)cc1 [Example 77, (E)-3-(4-((E)-1-(Benzofuran-2-yl)-2-(3-chloropyridin-4-yl)-2-cyclobutylvinyl)phenyl)acrylic acid] | ++ (++ = a single % value ≧ 40%)
≥ 40 | ≤ 100 | ≥ 7.00 | Cc1cscc1/C(=C(\c1ccc(/C=C/C(=O)NCCO)cc1)c1ccc2[nH]nc(F)c2c1)C1CCC1 [Example 181, (E)-3-(4-((E)-2-Cyclobutyl-1-(3-fluoro-1H-indazol-5-yl)-2-(4-methylthiophen-3-yl)vinyl)phenyl)-N-(2-hydroxyethyl)acrylamide] | ++ (++ = a single % value ≧ 40%)
≥ 40 | ≤ 100 | ≥ 7.00 | CS(=O)(=O)c1ccccc1/C(=C(\c1ccc(/C=C/C(=O)O)cc1)c1ccc2scnc2c1)C1CCC1 [Example 197, (E)-3-(4-((E)-1-(Benzo[d]thiazol-5-yl)-2-cyclobutyl-2-(2-(methylsulfonyl)phenyl)vinyl)phenyl)acrylic acid] | ++ (++ = a single % value ≧ 40%)
≥ 40 | ≤ 100 | ≥ 7.00 | O=C(O)/C=C/c1ccc(/C(=C(\c2ncc(F)cc2Cl)C2CCC2)c2ccc3[nH]nc(F)c3c2)cc1F [Example 253, (E)-3-(4-((Z)-2-(3-Chloro-5-fluoropyridin-2-yl)-2-cyclobutyl-1-(3-fluoro-1H-indazol-5-yl)vinyl)-2-fluorophenyl)acrylic acid] | ++ (++ = a single % value ≧ 40%)
≥ 40 | ≤ 100 | ≥ 7.00 | O=C(O)/C=C/c1ccc(/C(=C(\c2ccc(C(F)(F)F)cc2Cl)C2CCC2)c2ccc3scnc3c2)cc1 [Example 274, (E)-3-(4-((E)-1-(Benzo[d]thiazol-5-yl)-2-(2-chloro-4-(trifluoromethyl)phenyl)-2-cyclobutylvinyl)phenyl)acrylic acid] | ++ (++ = a single % value ≧ 40%)
≥ 40 | ≤ 100 | ≥ 7.00 | O=C(O)/C=C/c1ccc(/C(=C(\c2ccccc2)C2CCC2)c2ccc3[nH]ncc3c2Cl)cc1 [Example 2, (E)-3-(4-((E)-1-(4-Chloro-1H-indazol-5-yl)-2-cyclobutyl-2-phenylvinyl)phenyl)acrylic acid] | ++ (++ = a single % value ≧ 40%)
≥ 40 | ≤ 100 | ≥ 7.00 | CC/C(=C(/c1ccc(/C=C/C(=O)O)cc1)c1ccc2[nH]nc(F)c2c1)c1ccc(Cl)cc1C#N [Example 101, (E)-3-(4-((E)-2-(4-Chloro-2-cyanophenyl)-1-(3-fluoro-1H-indazol-5-yl)but-1-en-1-yl)phenyl)acrylic acid] | ++ (++ = a single % value ≧ 40%)
≥ 40 | ≤ 100 | ≥ 7.00 | O=C(O)/C=C/c1ccc(/C(=C(\c2ccccc2F)C2CCC2)c2ccc3scnc3c2)cc1 [Example 94, (E)-3-(4-((E)-1-(Benzo[d]thiazol-5-yl)-2-cyclobutyl-2-(2-fluorophenyl)vinyl)phenyl)acrylic acid] | ++ (++ = a single % value ≧ 40%)
